Each structure is given as a SMILES string.

Holding throughout (experiment): TPP-CCR in living HL-60 cells
What all share (assay type): cell-based

The target of one test is T1, CHMP4B (Homo sapiens, UniProt Q9H444).
T1 construct: endogenous in cells; host or cells: HL-60 (ATCC CCL-240)
T1 sequence (Q9H444 1-224): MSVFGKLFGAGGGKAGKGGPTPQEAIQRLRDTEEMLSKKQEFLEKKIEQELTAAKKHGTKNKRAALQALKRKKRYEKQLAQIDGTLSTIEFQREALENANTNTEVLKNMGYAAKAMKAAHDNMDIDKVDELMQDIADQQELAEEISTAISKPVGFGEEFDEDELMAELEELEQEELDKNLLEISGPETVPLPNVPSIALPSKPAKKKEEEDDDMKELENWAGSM

The next test addresses T2, UGGT1 (Homo sapiens, UniProt Q9NYU2).
T2 construct: endogenous in cells; host or cells: HL-60 (ATCC CCL-240)

The next test addresses T3, PDCD4 (Homo sapiens, UniProt Q53EL6).
T3 construct: endogenous in cells; host or cells: HL-60 (ATCC CCL-240)
T3 sequence (Q53EL6 1-469): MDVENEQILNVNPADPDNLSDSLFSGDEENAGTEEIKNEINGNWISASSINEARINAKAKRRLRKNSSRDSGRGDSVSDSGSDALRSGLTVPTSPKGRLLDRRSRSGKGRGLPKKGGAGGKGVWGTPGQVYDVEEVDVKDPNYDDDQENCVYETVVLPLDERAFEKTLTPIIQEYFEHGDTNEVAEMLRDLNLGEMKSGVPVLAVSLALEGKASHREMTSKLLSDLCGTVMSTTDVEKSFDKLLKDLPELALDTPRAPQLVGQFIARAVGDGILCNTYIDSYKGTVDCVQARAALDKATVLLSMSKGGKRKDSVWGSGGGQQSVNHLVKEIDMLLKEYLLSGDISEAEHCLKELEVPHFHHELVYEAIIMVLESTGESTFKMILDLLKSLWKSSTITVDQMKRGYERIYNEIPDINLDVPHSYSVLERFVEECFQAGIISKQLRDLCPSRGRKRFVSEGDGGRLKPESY

Where [1] appears, read: living HL-60 cells, […] °C, TMT-MS.

T2 sequence (Q9NYU2 43-1555): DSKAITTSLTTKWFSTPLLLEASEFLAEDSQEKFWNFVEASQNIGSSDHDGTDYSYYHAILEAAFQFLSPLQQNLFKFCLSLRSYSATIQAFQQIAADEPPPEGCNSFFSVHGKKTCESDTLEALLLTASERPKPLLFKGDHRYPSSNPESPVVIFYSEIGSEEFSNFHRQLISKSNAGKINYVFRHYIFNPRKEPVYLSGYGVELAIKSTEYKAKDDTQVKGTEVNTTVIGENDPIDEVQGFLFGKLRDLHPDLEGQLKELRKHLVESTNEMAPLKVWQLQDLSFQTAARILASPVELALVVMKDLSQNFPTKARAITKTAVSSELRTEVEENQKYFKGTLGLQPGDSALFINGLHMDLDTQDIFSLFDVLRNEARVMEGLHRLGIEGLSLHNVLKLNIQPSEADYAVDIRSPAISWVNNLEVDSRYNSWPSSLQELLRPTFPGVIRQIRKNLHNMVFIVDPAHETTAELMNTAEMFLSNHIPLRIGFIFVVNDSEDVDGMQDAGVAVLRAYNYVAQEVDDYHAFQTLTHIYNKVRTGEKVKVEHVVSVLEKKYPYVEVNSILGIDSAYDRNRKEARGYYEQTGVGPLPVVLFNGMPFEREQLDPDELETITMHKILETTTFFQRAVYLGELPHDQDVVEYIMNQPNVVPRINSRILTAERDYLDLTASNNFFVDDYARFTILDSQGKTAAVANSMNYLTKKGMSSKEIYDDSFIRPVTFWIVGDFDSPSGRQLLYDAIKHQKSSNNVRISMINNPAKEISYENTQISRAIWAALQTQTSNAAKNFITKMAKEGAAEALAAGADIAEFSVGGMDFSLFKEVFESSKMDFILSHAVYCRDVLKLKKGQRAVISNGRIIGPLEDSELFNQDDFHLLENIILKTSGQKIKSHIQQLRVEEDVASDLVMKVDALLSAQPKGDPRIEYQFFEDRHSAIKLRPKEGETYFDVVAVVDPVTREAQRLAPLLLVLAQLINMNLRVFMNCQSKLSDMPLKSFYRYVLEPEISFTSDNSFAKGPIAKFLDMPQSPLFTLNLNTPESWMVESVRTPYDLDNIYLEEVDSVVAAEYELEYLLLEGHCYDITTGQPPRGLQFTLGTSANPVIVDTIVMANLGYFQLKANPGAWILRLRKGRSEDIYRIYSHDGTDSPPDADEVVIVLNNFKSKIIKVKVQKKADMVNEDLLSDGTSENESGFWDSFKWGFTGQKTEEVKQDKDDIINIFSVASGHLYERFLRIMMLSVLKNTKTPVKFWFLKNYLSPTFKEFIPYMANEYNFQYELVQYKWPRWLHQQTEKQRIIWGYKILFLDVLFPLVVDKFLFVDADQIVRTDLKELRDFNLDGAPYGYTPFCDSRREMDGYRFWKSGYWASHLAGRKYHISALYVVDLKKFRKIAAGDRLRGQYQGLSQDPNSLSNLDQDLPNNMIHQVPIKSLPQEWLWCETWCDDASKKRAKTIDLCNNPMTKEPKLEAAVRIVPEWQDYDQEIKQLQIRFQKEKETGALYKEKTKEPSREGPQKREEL

For orientation: Hill slope means the slope factor of the fitted curve. Regarding `Cc1cnc(Nc2ccc(F)cc2Cl)nc1-c1c[nH]c(C(=O)N[C@H](CO)c2cccc(Cl)c2)c1` [ERK 11e], the Hill slope came to 0.21 on CHMP4B (TPP-CCR, living cells, CHMP4B); 1.97 at UGGT1 (TPP-CCR, living cells, UGGT1); 0.69 at PDCD4 (TPP-CCR, living cells, PDCD4). In addition, on CHMP4B (setting [1]), the “Hill slope (CHMP4B)” value turned out to be 0.21. For the same molecule, the EC50 is 41.7 nM at CHMP4B (living HL-60 cells, […] °C, TMT-MS, read-out: pEC50 (CHMP4B) (converted)); 5370 nM at UGGT1 (living HL-60 cells, […] °C, TMT-MS, read-out: pEC50 (UGGT1) (converted)); 1050 nM on PDCD4 (living HL-60 cells, […] °C, TMT-MS, read-out: pEC50 (PDCD4) (converted)). The “Hill slope (UGGT1)” value at UGGT1 (setting [1]) is on record as 1.97. In addition, the “Hill slope (PDCD4)” value at PDCD4 (setting [1]) is listed as 0.69.
